Values of other authors in patent publication US6380174B1, “Slime-removing composition for paper manufacture and method of controlling slime using the same” (SK Corporation, priority 1999, dated 2002).

Tested on: slime-causing microorganisms

For N#CC(Br)(Br)C(N)=O [DBNPA, 2,2-dibromo-3-nitrilepropionamide], the “amount required for early sterilization” value (after 3 hours) is given as 50 ppm and the “amount necessary for sufficient sterilizing activity” value (after 24 hours) is given as 5 ppm.
